# Activity calls are given as the source filed them. Rule as the data show it, for most assays here: actives have a measured EC50 and inactives only a lower limit.
# Key:
# [1] = Luminescence Cell-Based Dose Confirmation HTS to Identify Inhibitors of Platelet Dense Granule Release. [Related pubchem assays: 1663 (Primary HTS), 1678 (Summary of Project)]; format: functional
# [2] = biological target: Luciferin 4-monooxygenase (Photinus pyralis, UniProt P08659); experiment: firefly luciferase enzyme inhibitors, dose response, biochemical, luminescence (AID 1891)
# [3] = biological target: T1, High affinity choline transporter 1 (Homo sapiens, UniProt Q9GZV3); experiment: CHT inhibitors, dose response, cell-based, 5-point CRC, membrane potential dye (AID 504840); format: functional
# T1 sequence (Q9GZV3 whole entry): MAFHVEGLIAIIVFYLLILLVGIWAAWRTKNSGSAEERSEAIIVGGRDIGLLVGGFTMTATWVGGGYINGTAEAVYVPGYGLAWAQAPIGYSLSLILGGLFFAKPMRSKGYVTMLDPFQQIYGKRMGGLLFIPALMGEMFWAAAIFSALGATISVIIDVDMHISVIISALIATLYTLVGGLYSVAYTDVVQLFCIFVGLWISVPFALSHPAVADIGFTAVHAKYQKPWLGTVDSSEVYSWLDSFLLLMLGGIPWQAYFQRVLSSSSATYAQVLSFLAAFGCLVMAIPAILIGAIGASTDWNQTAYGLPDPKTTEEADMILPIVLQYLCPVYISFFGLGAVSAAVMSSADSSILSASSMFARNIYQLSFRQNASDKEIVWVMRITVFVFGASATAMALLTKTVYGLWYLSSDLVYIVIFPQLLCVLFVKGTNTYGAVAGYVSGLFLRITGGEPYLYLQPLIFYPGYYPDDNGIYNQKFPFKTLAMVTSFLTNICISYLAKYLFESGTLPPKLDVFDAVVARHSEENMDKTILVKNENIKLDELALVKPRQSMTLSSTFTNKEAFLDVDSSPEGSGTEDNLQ
# [4] = cytotoxicity toward DRD oncogenic fibroblasts, dose response, cell-based, non-viral oncogenic, luminescence (AID 1934); format: functional; conditions: Homo sapiens
# [5] = system: BJ; experiment: cells; format: functional, cell-based; conditions: Homo sapiens
# [6] = system: BJ; experiment: cytotoxicity toward BJ-TERT-LT-ST fibroblasts, dose response, cell-based, RAS-independent, luminescence (AID 1935); format: functional; conditions: Homo sapiens;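 also: BJ fibroblasts immortalized with TERT plus LT and ST oncogenes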
# [7] = system: BJ; experiment: cytotoxicity toward BJ-TERT fibroblasts, dose response, cell-based, RAS-independent, luminescence (AID 1933); format: functional; conditions: Homo sapiens
# [8] = biological target: FAD-linked sulfhydryl oxidase ALR (Homo sapiens, UniProt P55789); experiment: inhibitors of human ALR sulfhydryl oxidase, dose response, biochemical, H2O2 detection, luminescence, cherry-pick (AID 493248)
# [9] = biological target: Genome polyprotein (dengue virus type 2, UniProt P29990); experiment: Dengue-2 NS5 methyltransferase inhibitors, primary screen, biochemical, confirmation dose response (AID 588689); format: functional
# [10] = Luminescence Cell-Based Dose Response HTS to Identify Inhibitors of 5'UTR Stem-Loop Driven Prion Protein mRNA Translation in H4 Neuroglioblastoma Cells. [Related pubchem assays: 1827 (Project Summary), 1813 (Primary HTS)]; format: functional
# [11] = inhibitors of firefly luciferase expression or activity, dose response, H4 neuroglioma cells, luminescence (AID 1990); format: functional, cell-based
# [12] = inhibitors of SNCA 5'UTR-driven reporter translation, confirmation, H4 neuroglioma cells, luminescence (AID 1988); format: functional, cell-based
# [13] = biological target: T2, Protein skinhead-1 (Caenorhabditis elegans, UniProt P34707); format: functional
# T2 sequence (P34707 whole entry): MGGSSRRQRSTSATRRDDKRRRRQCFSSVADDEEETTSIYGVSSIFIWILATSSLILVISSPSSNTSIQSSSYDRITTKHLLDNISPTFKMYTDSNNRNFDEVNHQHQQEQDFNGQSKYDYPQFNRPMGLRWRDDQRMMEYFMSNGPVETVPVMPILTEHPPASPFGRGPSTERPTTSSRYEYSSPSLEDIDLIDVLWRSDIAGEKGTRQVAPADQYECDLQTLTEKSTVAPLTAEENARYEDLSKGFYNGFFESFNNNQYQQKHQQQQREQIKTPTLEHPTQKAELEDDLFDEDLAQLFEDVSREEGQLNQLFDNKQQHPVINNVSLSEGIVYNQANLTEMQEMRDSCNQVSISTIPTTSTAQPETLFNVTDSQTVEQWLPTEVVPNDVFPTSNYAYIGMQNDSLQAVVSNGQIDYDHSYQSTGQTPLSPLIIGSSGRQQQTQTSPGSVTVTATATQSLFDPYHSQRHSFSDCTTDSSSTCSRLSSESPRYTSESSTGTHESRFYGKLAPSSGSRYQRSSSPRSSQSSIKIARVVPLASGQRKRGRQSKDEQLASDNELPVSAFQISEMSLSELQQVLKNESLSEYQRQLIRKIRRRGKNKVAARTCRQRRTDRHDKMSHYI
# [14] = system: Streptococcus sp. 'group A'; experiment: growth inhibition of control SK(-) GAS strain, dose response, counter-screen for streptokinase expression inhibitor project, luminescence, kanamycin, BacTiterGlo, confirmation (AID 1900); format: functional, organism-based
# [15] = system: Streptococcus; experiment: Group A Streptococcus viability loss, dose response, counter-screen for streptokinase expression inhibitor project, luminescence, BacTiterGlo (AID 1915); format: functional, organism-based;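 also: potency for reduction of bacterial viability or growth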
# [16] = biological target: T3, RNA-binding protein pos-1 (Caenorhabditis elegans, UniProt G5EF15); experiment: inhibitors of POS-1/mex-3 RNA binding, dose response, biochemical, fluorescence polarization (AID 1964);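 also: purified POS-1 fused to maltose binding protein made in E. coli; potency of compounds blocking POS-1 binding to fluorescent RNA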
# T3 sequence (G5EF15 whole entry): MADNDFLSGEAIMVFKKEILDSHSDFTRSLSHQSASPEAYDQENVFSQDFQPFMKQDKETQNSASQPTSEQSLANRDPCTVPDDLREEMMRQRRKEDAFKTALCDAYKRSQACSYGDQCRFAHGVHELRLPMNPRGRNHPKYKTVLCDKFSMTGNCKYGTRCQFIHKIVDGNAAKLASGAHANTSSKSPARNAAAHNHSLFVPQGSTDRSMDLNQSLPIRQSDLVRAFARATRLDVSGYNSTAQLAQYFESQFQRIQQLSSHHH
# [17] = biological target: T4, Zinc finger protein mex-5 (Caenorhabditis elegans, UniProt Q9XUB2); experiment: MEX-5/TCR-2 RNA interaction inhibitors, dose response, biochemical, C. elegans, fluorescence polarization (AID 1960)
# T4 sequence (Q9XUB2 whole entry): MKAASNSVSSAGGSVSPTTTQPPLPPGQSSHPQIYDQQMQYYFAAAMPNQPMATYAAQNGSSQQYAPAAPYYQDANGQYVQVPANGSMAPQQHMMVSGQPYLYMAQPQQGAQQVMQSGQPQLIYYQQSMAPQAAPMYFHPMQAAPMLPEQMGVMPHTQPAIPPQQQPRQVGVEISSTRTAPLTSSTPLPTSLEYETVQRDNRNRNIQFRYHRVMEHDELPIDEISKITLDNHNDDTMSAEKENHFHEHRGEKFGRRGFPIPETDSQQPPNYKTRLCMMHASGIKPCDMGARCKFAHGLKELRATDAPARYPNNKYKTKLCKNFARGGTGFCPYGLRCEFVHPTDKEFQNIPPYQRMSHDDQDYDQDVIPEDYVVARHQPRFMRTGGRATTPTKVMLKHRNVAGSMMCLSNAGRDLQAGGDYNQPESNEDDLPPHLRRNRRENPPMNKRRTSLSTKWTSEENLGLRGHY
# [18] = biological target: T5, Streptokinase A (Streptococcus pyogenes serotype M1, UniProt P10520); experiment: S. pyogenes streptokinase expression inhibitors, potency, dose response, plasminogen activation absorbance, OD405 (AID 1914); format: functional, Streptococcus pyogenes M1 GAS;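 also: secreted streptokinase activity via plasminogen activation per viability signal from cell pellet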
# T5 sequence (P10520 whole entry): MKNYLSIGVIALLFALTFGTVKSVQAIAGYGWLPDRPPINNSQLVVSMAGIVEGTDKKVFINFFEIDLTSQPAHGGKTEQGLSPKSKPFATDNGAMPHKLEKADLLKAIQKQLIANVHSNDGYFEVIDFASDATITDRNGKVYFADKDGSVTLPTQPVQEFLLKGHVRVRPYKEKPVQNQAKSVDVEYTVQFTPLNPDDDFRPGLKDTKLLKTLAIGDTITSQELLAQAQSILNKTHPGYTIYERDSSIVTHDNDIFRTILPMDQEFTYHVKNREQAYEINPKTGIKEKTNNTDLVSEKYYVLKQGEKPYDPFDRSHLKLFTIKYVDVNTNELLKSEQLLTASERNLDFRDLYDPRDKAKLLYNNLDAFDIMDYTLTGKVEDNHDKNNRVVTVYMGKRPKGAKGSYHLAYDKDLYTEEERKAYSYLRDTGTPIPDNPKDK
# [19] = biological target: Cytochrome P450 2D6 (Homo sapiens, UniProt P10635);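 also: CYP2D6 member of a cytochrome P450 panel assay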
# [20] = system: H9c2; experiment: cells; format: functional, cell-based; conditions: Rattus norvegicus, H9c2, Myocardium;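 also: confirmatory concentration-response retest of ultra-high-throughput screening hits for modulation of myocardial damage; cell death induced by hydrogen peroxide oxidative stress; compound pretreatment for 60 min then peroxide exposure for 2 h; potency is for protecting the cells against peroxide damage rather than for killing them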
# Sequence of Genome polyprotein (P29990 2492-3391 limits assumed): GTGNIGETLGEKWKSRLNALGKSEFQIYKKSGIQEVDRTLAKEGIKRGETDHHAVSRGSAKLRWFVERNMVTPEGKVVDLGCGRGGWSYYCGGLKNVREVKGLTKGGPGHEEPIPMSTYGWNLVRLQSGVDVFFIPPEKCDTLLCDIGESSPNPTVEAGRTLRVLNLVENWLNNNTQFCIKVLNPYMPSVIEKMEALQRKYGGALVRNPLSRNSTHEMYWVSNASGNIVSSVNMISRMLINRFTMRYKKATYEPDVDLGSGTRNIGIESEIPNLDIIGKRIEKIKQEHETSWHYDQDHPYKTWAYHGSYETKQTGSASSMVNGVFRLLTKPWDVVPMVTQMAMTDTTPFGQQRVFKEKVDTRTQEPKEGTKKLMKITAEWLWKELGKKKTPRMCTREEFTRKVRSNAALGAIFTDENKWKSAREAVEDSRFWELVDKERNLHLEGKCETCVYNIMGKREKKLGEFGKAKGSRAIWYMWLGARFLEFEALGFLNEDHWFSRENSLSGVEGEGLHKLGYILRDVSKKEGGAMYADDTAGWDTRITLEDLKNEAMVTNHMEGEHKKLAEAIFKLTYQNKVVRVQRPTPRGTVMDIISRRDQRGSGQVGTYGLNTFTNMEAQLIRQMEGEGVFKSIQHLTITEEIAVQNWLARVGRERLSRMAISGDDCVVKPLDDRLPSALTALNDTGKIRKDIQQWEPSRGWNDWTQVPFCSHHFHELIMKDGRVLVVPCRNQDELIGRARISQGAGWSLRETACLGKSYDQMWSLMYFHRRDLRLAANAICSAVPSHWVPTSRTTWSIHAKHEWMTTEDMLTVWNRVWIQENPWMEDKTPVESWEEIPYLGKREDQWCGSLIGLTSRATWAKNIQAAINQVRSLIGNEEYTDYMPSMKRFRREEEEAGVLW
# Sequence of FAD-linked sulfhydryl oxidase ALR (P55789 whole entry): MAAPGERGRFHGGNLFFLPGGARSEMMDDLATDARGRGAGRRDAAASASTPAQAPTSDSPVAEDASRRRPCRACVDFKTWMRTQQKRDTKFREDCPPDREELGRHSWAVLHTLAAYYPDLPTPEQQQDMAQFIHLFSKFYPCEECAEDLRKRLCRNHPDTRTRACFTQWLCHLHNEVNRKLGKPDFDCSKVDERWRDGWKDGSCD
# Sequence of Luciferin 4-monooxygenase (P08659 whole entry): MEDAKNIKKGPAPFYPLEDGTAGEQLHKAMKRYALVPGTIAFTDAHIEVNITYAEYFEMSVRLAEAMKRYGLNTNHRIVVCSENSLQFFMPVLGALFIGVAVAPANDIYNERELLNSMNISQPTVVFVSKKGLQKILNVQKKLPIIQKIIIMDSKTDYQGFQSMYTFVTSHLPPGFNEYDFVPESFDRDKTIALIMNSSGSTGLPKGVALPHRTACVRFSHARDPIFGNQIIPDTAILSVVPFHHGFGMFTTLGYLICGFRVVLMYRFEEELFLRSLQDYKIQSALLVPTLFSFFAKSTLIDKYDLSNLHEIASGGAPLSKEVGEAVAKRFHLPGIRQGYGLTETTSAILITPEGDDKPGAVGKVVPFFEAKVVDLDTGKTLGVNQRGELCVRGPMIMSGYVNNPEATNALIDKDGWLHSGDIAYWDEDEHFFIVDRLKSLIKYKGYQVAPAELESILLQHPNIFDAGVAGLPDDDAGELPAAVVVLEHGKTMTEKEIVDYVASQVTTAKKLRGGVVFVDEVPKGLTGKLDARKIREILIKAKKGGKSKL
# Sequence of Cytochrome P450 2D6 (P10635 whole entry): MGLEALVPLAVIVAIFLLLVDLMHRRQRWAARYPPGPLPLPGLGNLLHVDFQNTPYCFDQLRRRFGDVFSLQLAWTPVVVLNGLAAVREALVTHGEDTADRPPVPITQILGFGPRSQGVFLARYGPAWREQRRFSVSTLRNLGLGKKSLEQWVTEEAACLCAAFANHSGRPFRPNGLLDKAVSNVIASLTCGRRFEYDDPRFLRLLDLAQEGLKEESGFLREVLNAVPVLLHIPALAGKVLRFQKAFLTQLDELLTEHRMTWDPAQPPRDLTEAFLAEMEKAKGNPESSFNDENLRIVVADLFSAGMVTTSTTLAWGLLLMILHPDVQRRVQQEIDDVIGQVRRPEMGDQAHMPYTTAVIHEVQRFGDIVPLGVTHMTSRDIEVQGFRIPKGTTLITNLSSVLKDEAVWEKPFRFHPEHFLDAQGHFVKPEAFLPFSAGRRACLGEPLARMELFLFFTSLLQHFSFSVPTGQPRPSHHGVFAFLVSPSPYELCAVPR
structure (smiles),measurement,setting,value
CCOc1ccc(S(=O)(=O)NCCC(=O)N2CCCN(C)CC2)cc1,EC50,[1],> 112 µM (not active)
same,EC50,[2],> 112 µM (not active)
COc1ccc(C(=O)N2CCCCCC2)cc1OC1CCN(C(C)C)CC1,IC50,[3],13.9 µM (active)
Nc1nn(-c2ccccc2)c(N)c1N=Nc1cccc(F)c1,EC50,[4],1.94 µM (active)
same,EC50,[5],124 µM (active)
same,EC50,[6],36.7 µM (inconclusive)
same,EC50,[7],3.92 µM (active)
CCN(CC)S(=O)(=O)c1cccc(-c2csc(C)n2)c1,AC50,[8],4.41 µM (active)
COc1ccccc1C(=O)N1CCN=C1SCc1cccnc1,AC50,[8],0.009 µM (active)
CCOc1ccc(/C=C/c2nc(O)nc(O)c2[N+](=O)[O-])cc1,IC50,[9],45.9 µM (active)
COc1cc(/C=N/c2cccc(C)c2)c(O)c([N+](=O)[O-])c1,IC50,[3],13.2 µM (active)
c1ccc2nc(-c3ccc(N4CCOCC4)cc3)ccc2c1,EC50,[1],3.7 µM (active)
same,EC50,[10],757 nM (active)
same,EC50,[2],0.793 µM (active)
same,EC50,[11],4.01 µM (inconclusive)
same,EC50,[12],413 nM (inconclusive)
O=C(CCNS(=O)(=O)c1ccccc1C(F)(F)F)N1CCN(c2ccccc2O)CC1,AC50,[8],5.51 µM (active)
Cc1ccc(C(=O)Nc2ncc([N+](=O)[O-])s2)cc1,IC50,[3],10.5 µM (active)
same,IC50,[13],> 100 µM (inactive)
CCOC(=O)Cc1sc(N)nc1C,EC50,[1],> 112 µM (not active)
same,EC50,[2],> 112 µM (not active)
O=C(O)CCc1ccc(-c2ccc(Cl)cc2)o1,AC50,[8],2.22 µM (active)
Cc1cccc(-c2cnn(-c3cccc([N+](=O)[O-])c3)c2N)c1,AC50,[8],0.287 µM (active)
CCCCCc1nc2sc3c(c2c(=O)n1N)CCC3,EC50,[1],> 112 µM (not active)
same,EC50,[2],> 112 µM (not active)
CC(=O)Nc1ccc(C(=O)N(C)c2ccccc2)cc1,EC50,[1],> 112 µM (not active)
same,EC50,[2],> 112 µM (not active)
COc1ccc(/C=N/Nc2nccnc2Cl)c(OC)c1,EC50,[1],2.65 µM (active)
same,EC50,[2],6.55 µM (active)
COc1ccc(/C=C2/C(=O)NC(=O)N(c3ccccc3)C2=O)cc1CN1C(=O)c2ccccc2C1=O,IC50,[9],73.9 µM (active)
COc1ccc(S(=O)(=O)N2CCN=C2SCc2cccnc2)cc1,AC50,[8],0.243 µM (active)
Cc1cccc(C(=O)Nc2nnc(-c3ccncc3)o2)c1,AC50,[8],2.35 µM (active)
Cc1ccc(N2NC(=O)/C(=C/c3ccc(-c4ccc(Cl)c(C(=O)O)c4)o3)C2=O)cc1C,IC50,[9],79.1 µM (active)
CSC1=NSC2=NC(=O)/C(=C\c3c[nH]c4ccccc34)C(=N)N12,IC50,[9],> 100 µM (active)
same,EC50,[14],1.95 µM (active)
same,EC50,[15],> 150 µM (not active)
same,EC50,[16],> 300 µM (inconclusive)
same,EC50,[17],17.9 µM (inconclusive)
same,EC50,[18],> 150 µM (not active)
COc1ccc(C(=O)N(C)C2CCCc3ccccc32)cc1OC1CCN(C(C)C)CC1 (configuration not stated),IC50,[3],12.6 µM (active)
CCN(CC)c1ccc2c(c1)OC(N)=C(C#N)C2c1cccnc1 (configuration not stated),EC50,[4],0.347 µM (active)
same,AC50,[19],15.8 µM (inconclusive)
same,EC50,[5],0.341 µM (inconclusive)
same,EC50,[6],0.396 µM (inconclusive)
same,EC50,[7],0.368 µM (inconclusive)
COc1ccc(-c2cc(-c3ccc(N)cc3)nc(N)c2C#N)cc1OC,AC50,[8],0.794 µM (active)
O=c1cc(COc2ncnc3c(Cl)cc(Cl)cc23)nc2sccn12,EC50,[1],> 112 µM (not active)
same,IC50,[20],> 79 µM (inactive)
same,EC50,[2],> 112 µM (not active)
CCOc1cccc2cc(C(=O)NCc3cccnc3)c(=O)oc12,EC50,[1],> 112 µM (not active)
same,EC50,[2],> 112 µM (not active)
CCOC(=O)N1CCN(C(=O)CCCN2C(=O)CSc3nc(C)cc(C)c32)CC1,EC50,[1],> 112 µM (not active)
same,EC50,[2],> 112 µM (not active)
Cc1csc(NC(=O)c2ccco2)n1,EC50,[1],20.1 µM (active)
same,EC50,[2],> 112 µM (not active)
CC1(C)c2[nH]c3ccccc3c2C[C@@H]2C(=O)N(Cc3ccccc3)C(=O)N21,IC50,[3],12.9 µM (active)
CCc1cc2c(N3CCN(c4nnc(CC)s4)CC3)ncnc2s1,IC50,[3],3.63 µM (active)
CCCc1cc(C(=O)NN=C(S)NC(C)c2ccccc2)cs1 (configuration not stated),IC50,[3],12.6 µM (active)
COc1cc(C(=O)NCC(=O)N2CCN(S(=O)(=O)c3cc(C)ccc3C)CC2)cc(OC)c1OC,EC50,[4],14.5 µM (active)
same,EC50,[5],31.8 µM (active)
same,EC50,[6],16.3 µM (active)
same,EC50,[7],13.4 µM (active)

# — ChEMBL document CHEMBL1201862, “PubChem BioAssay data set” (2004)
